Experiments:
patients = test: Peripheral blood counts of patients on VKA versus control patients; assay type: in vivo, human
Text: For FIGS. 6C-6H: Data of patients on VKA were obtained from the French health care databases. Patients with hematological disease, inflammation or sepsis were excluded. Patients admitted to the hospital for dermatological problems without hematological disease or sepsis acted as controls.

F4/80+ macrophages = test: Macrophage coculture assay and periostin in macrophage conditioned medium; assay type: cell-based, mice
Text: For the macrophage coculture assay F4/80+ macrophages were sorted from the bone marrow of control or warfarin-treated mice, plated and cocultured with 20,000-30,000 Lin− BM cells as from the following day.

Actin DsRed+ Lin− cells = test: Intrafemoral cotransplantation of treated murine stroma cells with untreated Lin− cells; assay type: in vivo, mice; conditions: cotransplanted with warfarin- vs vehicle-treated stroma
Description: (§1) For the intrafemoral co-transplantation experiments 0.8×10^5 human CD34+ cells or 1×10^5 Lin− cells from Actin-DsRed reporter mice were mixed with 5×10^5 human or murine stroma cells which had been expanded in vitro and pretreated with vehicle or 2 μM warfarin for 14 days. The human stromal cells had been obtained via flushing of discarded bones from the orthopedic operating room, as approved of by the local ethics committee.

murine stroma cells = test: Differentiation, gene expression and apoptosis of stroma and calvaria cells in presence of warfarin; assay type: cell-based
Description: Concentrations of drugs for in vitro use were 2 μM for warfarin, 2 μg/ml for periostin, 5 μM for the AKT inhibitor MK-2206 (Selleck Chemicals, Houston, TX) and cilengitide (Selleck Chemicals, Houston, TX, Cat. No. #S7077) was used at 0.05 μM. Phosphate buffered saline served as the vehicle control.
Bones from mice were crushed and plated and hematopoietic cells were removed the following day. As described (Mukherjee et al., 2008), after reaching confluence the stroma cells were cultured in α-MEM medium containing 10 mM β-glycerolphosphate, 10 nM dexamethasone and 50 μg/ml ascorbic acid for differentiation into osteoblastic cells (Mukherjee et al., 2008) or 500 nM insulin and 100 nM dexamethasone for differentiation into adipocytes. Differentiation was tested after 14-20 days by staining for von Kossa in the case of osteoblastic cells and Oil Red O in the case of adipocytes following standard staining protocols. Osteoclasts were purified from bone marrow macrophages, following standard protocols. Briefly, bone marrow cells were isolated from the femora and tibiae of 6-8 week old C57/B16 animals and cultured overnight at 37 C in α-MEM medium containing 10% fetal bovine serum and 1% antibiotic/antimycotic. The following day non-adherent cells were collected and separated by centrifugation on 50% Ficoll-Paque. Bone marrow-derived macrophages were seeded at 20,000 cells/well and cultured for 3 days in the presence of macrophage colony-stimulating factor (M-CSF) (50 ng/ml). On day 4 cells were also treated with receptor activator of nuclear factor kappa-B ligand (RANKL) (50 ng/ml) for an additional 4-5 days prior to tartrate-resistant acid phosphatase (TRAP) staining. Cells were treated with vehicle or warfarin (2 μM) for the entire culture period. […]
Quantitative PCR was performed using standard protocols.

Lin− cells = test: Plating of warfarin-exposed Lin− cells on untreated versus warfarin-treated stroma, with or without MK-2206; assay type: cell-based, mice
wildtype mice = test: 5-fluorouracil-induced hematopoietic stress in warfarin-treated mice; assay type: in vivo
Description: (§2) 0.5 mg/kg/d or 0.05 mg/kg/d of warfarin, resuspended in phosphate-buffered saline was administered to mice via subcutaneously implanted osmotic minipumps (ALZET minipumps, Cupertino, CA). The osmotic minipumps were changed after 14 days (if the experiment went beyond 14 days of treatment). Sham operated (skin incision and suture) mice served as controls. Warfarin treatment continued for 10-14 days. In the xenotransplantation experiments the mice were treated with warfarin via the drinking water (or normal drinking water) at a dose of 0.72 mg/100 ml for a total of 3 days a week (Pfeilschifter et al., 2011).
5-fluorouracil was intraperitoneally injected every week at a dose of 75 mg/kg for a total of 4 doses or as a one time dose of 200 mg/kg. Recombinant mouse periostin (R&D Systems, Minneapolis, MN, cat. no. 2955-F2), produced in the Sf21 (baculovirus)-derived insect cell line, was administered intravenously at a dose of 2-4 μg per day and vitamin K was given at a dose of 15 mg/kg by oral gavage for four consecutive days.

[1] = test system: bone marrow Lin− and LKS cells; test: Apoptosis, cell cycle, pAKT and macrophages in bone marrow of warfarin-treated mice; assay type: in vivo
Description: as §2
For cell cycle analysis cells were permeabilized and fixed with the cytoperm/cytofix kit (BD Biosciences, San Jose, CA), followed by staining with an antibody to Ki67-PE (Biolegend, San Diego, CA) overnight at 4 C. Consequently, cells were washed and resuspended in PBS with DAPI (1 ng/ml). For detection of apoptosis cells were first stained for surface markers, washed with Annexin V buffer (Life Technologies, Darmstadt, Germany), stained with Annexin V-PE (Life Technologies, Darmstadt, Germany), washed with Annexin V binding buffer, resuspended in PBS with DAPI and analyzed.
The PE-labelled anti-pAKT antibody (Cell signaling, #5315, Danvers, MA) was used for intracellular flow cytometry after fixation and permeabilization of the cells.

human CD34+ cells = test: Intrafemoral cotransplantation of human CD34+ cells with treated human stroma cells into NSG mice; assay type: in vivo
Description: as §1
We assessed the complete blood count of vehicle or warfarin-treated mice using a complete blood count analyzer (Scil Vet ABC, Gurnee, IL). Peripheral blood and bone marrow samples were stained with antibodies for flow cytometry, which was performed on a BD LSR Fortessa (BD Biosciences, Heidelberg, Germany). The lineage antibody cocktail contained antibodies to B220, CD5, Ter119, F4/80 and CD11b. Engraftment of human cells in NSG mice was assessed using anti-human CD45 (BD Biosciences, San José, CA).
Stroma and hematopoietic cells (purified for CD34+) were taken from the iliac crest of healthy donors of allogeneic bone marrow.

`CC(=O)CC(c1ccccc1)c1c(O)c2ccccc2oc1=O` (stereo not shown) [warfarin] was tested, and the “absolute number of leukocytes” value (patients; 282 patients on warfarin (P=0.0007) or 89 on fluindione (P=0.029) vs 145 control patients) was “significantly decreased”, the “absolute number of monocytes” value (patients; 282 patients on warfarin (P=0.004) or 89 on fluindione (P=0.046) vs 145 control patients) was “significantly decreased” and the percentage of eosinophils (patients; 282 patients on warfarin vs 145 control patients, P=0.0027) was “significantly decreased”. For the same molecule, the percentage of basophils (patients; 282 patients on warfarin vs 145 control patients, P=0.007) was “significantly decreased”, the platelets (patients; warfarin- or fluindione-treated patients) was “not reduced” and the “percentage of Annexin V+ apoptotic leukocytes” value (F4/80+ macrophages; untreated Lin− cells on warfarin-treated sorted F4/80+ macrophages, P=0.034) was “increased”. The “total periostin levels in conditioned medium from macrophages” value (F4/80+ macrophages; vehicle- versus warfarin-treated macrophages, coimmunoprecipitation) was “no significant reduction”, the “engraftment of donor-derived myeloid cells” value (Actin DsRed+ Lin− cells; P=0.023) was “decreased engraftment” and the “engraftment of total donor bone marrow” value (Actin DsRed+ Lin− cells; P=0.025) was “decreased engraftment”. The “apoptosis of stroma cells in vitro” value (murine stroma cells; P=0.05) was “modest, but significant increase”, the “differentiation of murine stroma cells to adipocytes and osteoblasts” value (murine stroma cells; in presence of warfarin) was “significantly compromised” and the “relative expression of osteoblastic genes (Runx2, Alpl, Col1a1, Osx, Spp1, Bglap and others)” value (murine stroma cells; primary calvaria cells, warfarin vs vehicle) was “significantly reduced”. The “number of pAKT+ Lin− cells” value (Lin− cells; previously warfarin-exposed Lin− cells on untreated stroma, P=0.02) was “increased”, the “number of hematopoietic cells” value (Lin− cells; warfarin-treated Lin− cells on untreated compared to warfarin-treated stroma, P=0.009) was “increased number” and the “percentage of Lin− cells in the S/G2/M phases” value (Lin− cells; warfarin-treated Lin− cells on untreated compared to warfarin-treated stroma, P=0.02) was “increase”. The “leukocyte counts after 5-fluorouracil” value (wildtype mice; 7 days after one-time dose of 200 mg/kg 5-fluorouracil, P=0.03) was “lower”, the survival (wildtype mice; higher dose (0.5 mg/kg), 75 mg/kg 5-fluorouracil days 0, 7, 14, 21, P=0.0004 Log-rank) was “similarly shortened” and the survival (wildtype mice; lower dose (0.05 mg/kg), 75 mg/kg 5-fluorouracil days 0, 7, 14, 21, P=0.02 Log-rank) was “similarly shortened”. For the same molecule, the “annexin V+ DAPI+ dead LKS cells in bone marrow” value ([1]; after 6 weeks, P=0.03) was “modest increase”, the “annexin V+ DAPI+ dead Lin− cells in bone marrow” value ([1]; after two weeks, P=0.038) was “modest increase” and the “macrophages in the bone marrow of primary mice” value ([1]; warfarin vs controls) was “not reduced”. The “percentage of LKS cells in the Go phase of the cell cycle” value ([1]; warfarin vs vehicle, P=0.005) was “significantly increased”, the “pAKT+ Lin− cells in the bone marrow” value ([1]; warfarin-treated vs control mice, P=0.04) was “significant reduction” and the “huCD45+ engraftment in femora” value (human CD34+ cells; 6 months after transplantation) was “only trends towards lower”. The “engraftment of human CD45+ leukocytes” value (human CD34+ cells; cotransplanted with warfarin-treated human stroma, 4 weeks, P=0.046) was “decreased engraftment”.

— patent US12162918B2, “Periostin compounds for the treatment of haematological complications” (Chemotherapeutisches Forschungsinstitut Georg-Speyer-Haus, priority 2018, dated 2024)
